Experimental findings from ChEMBL document CHEMBL5370687 (ACS Med Chem Lett, 2023) are described below.

The assay concerns the target T1, Protein-glutamine gamma-glutamyltransferase (Homo sapiens, UniProt P21980).
T1 sequence (P21980 whole entry): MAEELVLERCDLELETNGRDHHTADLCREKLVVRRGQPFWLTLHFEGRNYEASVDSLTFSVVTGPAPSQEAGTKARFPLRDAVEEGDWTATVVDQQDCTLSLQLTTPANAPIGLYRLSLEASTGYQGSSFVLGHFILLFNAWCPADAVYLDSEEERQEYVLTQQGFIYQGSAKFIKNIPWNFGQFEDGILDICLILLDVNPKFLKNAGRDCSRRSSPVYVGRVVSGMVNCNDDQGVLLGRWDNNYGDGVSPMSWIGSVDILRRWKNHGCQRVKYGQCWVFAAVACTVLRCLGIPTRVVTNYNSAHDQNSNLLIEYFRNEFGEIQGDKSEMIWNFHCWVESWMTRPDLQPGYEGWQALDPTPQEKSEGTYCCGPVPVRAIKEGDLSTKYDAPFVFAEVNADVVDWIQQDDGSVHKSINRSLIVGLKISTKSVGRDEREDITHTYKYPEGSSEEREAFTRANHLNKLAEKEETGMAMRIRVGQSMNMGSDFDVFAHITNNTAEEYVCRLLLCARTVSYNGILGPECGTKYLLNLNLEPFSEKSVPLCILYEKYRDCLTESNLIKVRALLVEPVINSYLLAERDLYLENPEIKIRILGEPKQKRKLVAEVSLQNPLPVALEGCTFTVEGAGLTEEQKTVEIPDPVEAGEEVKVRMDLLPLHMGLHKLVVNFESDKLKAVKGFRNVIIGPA
Nature of the assay: Inhibition of human recombinant His6-tagged TG2 expressed in insect cells assessed as reduction in incorporation of dansylcadaverine into N,N-dimethylcasein measured for 30 mins by fluorescence assay. Also noted: species or system Insect cell.
In the case of `CNC(=O)C(=O)CC[C@H](NC(=O)c1cc2cccc(F)c2s1)C(=O)Nc1cccn(CC(=O)NC2C3CC4CC(C3)CC2C4)c1=O` (stereo not given in full), the IC50 is not above 25 nM.

For the compound `CNC(=O)C(=O)CC[C@H](NC(=O)c1[nH]c2ccccc2c1C)C(=O)Nc1cccn(CC(=O)NC2C3CC4CC(C3)CC2C4)c1=O` (stereo not given in full), the concentration for half-maximal inhibition (IC50) is less than 250 nM.

For the compound `CNC(=O)C(=O)CC[C@H](NC(=O)c1cc2ccccc2[nH]1)C(=O)Nc1cccn(CC(=O)NC2C3CC4CC(C3)CC2C4)c1=O` (stereo not given in full), the IC50 was not above 25 nM.

As for `CNC(=O)C(=O)CC[C@H](NC(=O)C1Cc2ccccc2C1)C(=O)Nc1cccn(CC(=O)NC2C3CC4CC(C3)CC2C4)c1=O` (stereo not given in full), the half-inhibitory concentration (IC50) was not above 25 nM.

Turning to `CNC(=O)C(=O)CC[C@H](NC(=O)c1cc2cc(Br)ccc2s1)C(=O)Nc1cccn(CC(=O)NC2C3CC4CC(C3)CC2C4)c1=O` (stereo not given in full), the IC50 is not above 25 nM.

Regarding `CNC(=O)C(=O)CC[C@H](NC(=O)c1cc2c(Br)cccc2o1)C(=O)Nc1cccn(CC(=O)NC2C3CC4CC(C3)CC2C4)c1=O` (stereo not given in full), the half-maximal inhibitory concentration (IC50) was not above 25 nM.

In the case of `CNC(=O)C(=O)CC[C@H](NC(=O)c1cc2ccccc2s1)C(=O)Nc1cccn(CC(=O)NC2C3CC4CC(C3)CC2C4)c1=O` (stereo not given in full), the concentration for half-maximal inhibition (IC50) was not above 25 nM.

Turning to `CNC(=O)C(=O)CC[C@H](NC(=O)c1oc2ccccc2c1Cl)C(=O)Nc1cccn(CC(=O)NC2C3CC4CC(C3)CC2C4)c1=O` (stereo not given in full), the IC50 is not above 25 nM.

For the compound `CNC(=O)C(=O)CC[C@H](NC(=O)c1cc2ccccc2o1)C(=O)Nc1cccn(CC(=O)NC2C3CC4CC(C3)CC2C4)c1=O` (stereo not given in full), the half-maximal inhibitory concentration (IC50) is not above 25 nM.

With `CNC(=O)C(=O)CC[C@H](NC(=O)c1cc2c(F)c(F)ccc2[nH]1)C(=O)Nc1cccn(CC(=O)NC2C3CC4CC(C3)CC2C4)c1=O` (stereo not given in full), the IC50 was not above 25 nM.

A word on the IC50: it is the concentration that inhibits the measured activity by half.
